Measurements reported in patent US4822800A (Ortho Pharmaceutical Corporation, priority 1986, dated 1989).
“Also recorded” adds a separate entry of the source. Like-named read-outs stand apart in the source and are kept apart here.

Experiments:
[1] = tested on: adult mongrel dogs; assay: renal vasodilating activity in anesthetized dogs; assay type: in vivo, dog (adult mongrel); settings: for change in vivo at 5 mg/kg / change in vivo at 1.2 mg/kg / change in vivo at 0.14 mg/kg: Canis lupus familiaris, renal vasodilator, relative to controls; for change in vivo at 5 mg/kg: dose 5.0 mg/kg intravenous; for change in vivo at 1.2 mg/kg: dose 1.2 mg/kg intravenous; for change in vivo at 0.14 mg/kg: dose 0.14 mg/kg intravenous
Procedure, shortened: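 In anesthetized mongrel dogs, compounds infused IV at rising (usually three-fold) rates, 5 min per dose, after a dopamine check (3 μg/kg/min, 10 min). Renal artery flow measured electromagnetically, pressure via carotid cannula; values are maximal % change from pre-drug control in RBF, RVR (MABP/flow), MABP and HR.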

[2] = tested on: adult mongrel dogs; assay: acute in vivo cardiotonic activity in anesthetized dogs; parameters: species or system dog (adult mongrel); settings: for change in vivo at 1.875 mg/kg / change in vivo at 0.375 mg/kg / change in vivo at 0.875 mg/kg: Canis lupus familiaris, cardiotonic, relative to controls; for change in vivo at 1.875 mg/kg: dose 1.875 mg/kg intravenous; for change in vivo at 0.375 mg/kg: dose 0.375 mg/kg intravenous; for change in vivo at 0.875 mg/kg: dose 0.875 mg/kg intravenous
Procedure, shortened: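 Pentobarbital-anaesthetised, artificially respired mongrel dogs received compound by intravenous infusion or oral bolus. Recordings covered femoral arterial pressure, heart rate, LV dP/dt max (Millar catheter), aortic flow cardiac output, right-ventricular contractile force (strain gauge) and lead II ECG. Dopamine 10 μg/kg/min checked responsiveness; dose-related changes were expressed as % of pretreatment values and rated.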

[3] = biological target: T1, Phosphodiesterase fraction III (Canis lupus familiaris, UniProt A0A8I3NYE0); assay: inhibition of phosphodiesterase fraction III activity; assay type: biochemical, canine (heart); settings: for IC50: cyclic AMP 0.10-1.0 uM, pH 7.4, canine heart enzyme
T1 construct: isolated as an isozyme from the crude canine heart homogenate; from tissue; host or cells: canine heart (crude homogenate, ion exchange chromatography, third and last PDE peak)
T1 sequence (A0A8I3NYE0 1-1135): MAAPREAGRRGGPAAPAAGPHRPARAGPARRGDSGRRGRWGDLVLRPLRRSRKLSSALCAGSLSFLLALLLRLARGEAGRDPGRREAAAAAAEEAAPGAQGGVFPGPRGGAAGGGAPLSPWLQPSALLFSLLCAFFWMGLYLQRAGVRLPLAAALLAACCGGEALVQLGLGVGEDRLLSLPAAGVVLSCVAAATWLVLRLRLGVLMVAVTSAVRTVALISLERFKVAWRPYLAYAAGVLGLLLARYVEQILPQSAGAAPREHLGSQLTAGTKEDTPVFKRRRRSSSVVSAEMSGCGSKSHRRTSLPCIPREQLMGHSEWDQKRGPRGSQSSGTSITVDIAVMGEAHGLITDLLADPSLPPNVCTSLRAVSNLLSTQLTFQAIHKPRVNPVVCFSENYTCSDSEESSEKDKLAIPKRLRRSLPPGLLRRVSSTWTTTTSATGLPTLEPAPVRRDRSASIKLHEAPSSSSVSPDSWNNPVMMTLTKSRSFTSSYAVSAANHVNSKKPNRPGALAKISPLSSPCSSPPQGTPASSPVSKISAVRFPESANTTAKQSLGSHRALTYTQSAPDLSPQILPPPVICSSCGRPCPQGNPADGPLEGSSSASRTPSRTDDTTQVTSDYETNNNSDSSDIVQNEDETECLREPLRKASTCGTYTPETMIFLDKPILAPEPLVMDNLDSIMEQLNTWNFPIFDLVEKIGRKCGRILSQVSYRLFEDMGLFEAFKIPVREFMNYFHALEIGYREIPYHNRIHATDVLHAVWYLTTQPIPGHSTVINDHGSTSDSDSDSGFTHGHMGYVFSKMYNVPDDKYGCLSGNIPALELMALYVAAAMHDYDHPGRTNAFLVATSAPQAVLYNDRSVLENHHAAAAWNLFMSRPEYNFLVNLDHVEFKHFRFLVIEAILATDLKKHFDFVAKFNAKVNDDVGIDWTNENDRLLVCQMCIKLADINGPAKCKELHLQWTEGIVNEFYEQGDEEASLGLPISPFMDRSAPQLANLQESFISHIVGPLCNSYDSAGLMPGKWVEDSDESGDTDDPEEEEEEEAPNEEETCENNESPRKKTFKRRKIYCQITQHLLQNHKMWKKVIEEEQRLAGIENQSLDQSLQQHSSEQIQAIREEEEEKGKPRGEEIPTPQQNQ

[4] = read-out: RBF (renal blood flow)
[5] = read-out: RVR (renal vascular resistance)
[6] = read-out: MABP (mean arterial blood pressure)
[7] = read-out: dP/dt (maximum change left ventricular pressure with time)

Q: What does the source list for `COc1cc2c(CCl)nc(O)c(Cl)c2cc1OC` [AD]?
A: change in vivo at 5 mg/kg [1, 4]: 16%; change in vivo at 5 mg/kg [1, 5]: -32%; renal vasodilating activity (in words) ([1]; summary of Table 4): renal vasodilating properties; change in vivo at 1.875 mg/kg ([2]; read-out: CF (cardiac force)): 111%; change in vivo at 1.875 mg/kg ([2]; read-out: HR (heart rate)): 21%; change in vivo at 1.875 mg/kg [2, 6]: -3%; change in vivo at 1.875 mg/kg [2, 7]: 106%; cardiotonic activity (in words) ([2]; summary of Table 4): cardiotonic properties; IC50 [3]: 11 µM; phosphodiesterase fraction III inhibition (in words) ([3]; summary of Table 5): inhibit phosphodiesterase fraction III activity; also recorded: phosphodiesterase fraction III inhibiting properties

Q: With `COc1cc(OC)c2c(C)nc(O)cc2c1` [AH] as the compound, how does the change in vivo at 1.2 mg/kg ([1]; read-out: HR (heart rate)) read?
A: 25%

Q: And the change in vivo at 1.2 mg/kg [1, 6]?
A: -6%

Q: And the change in vivo at 1.2 mg/kg [1, 4]?
A: 13%

Q: What about the change in vivo at 1.2 mg/kg [1, 5] of the same compound?
A: -17%

Q: And the change in vivo at 0.375 mg/kg ([2]; read-out: CF (cardiac force))?
A: 50%

Q: And the change in vivo at 0.375 mg/kg ([2]; read-out: HR (heart rate))?
A: 6%

Q: And the change in vivo at 0.375 mg/kg [2, 6]?
A: -3%

Q: And the change in vivo at 0.375 mg/kg [2, 7]?
A: 46%

Q: And the IC50 [3]?
A: 80 µM

Q: How did the change in vivo at 0.14 mg/kg [1, 4] turn out when `COc1cc2c(C)nc(O)c(Cl)c2cc1OC` [Compound AE, 4-Chloro-3-hydroxy-6,7-dimethoxy-1-methylisoquinoline] was run?
A: 12%

Q: And the change in vivo at 0.14 mg/kg [1, 5]?
A: -25%

Q: And the change in vivo at 0.875 mg/kg ([2]; read-out: CF (cardiac force))?
A: 89%

Q: And the change in vivo at 0.875 mg/kg ([2]; read-out: HR (heart rate))?
A: 29%

Q: What about the change in vivo at 0.875 mg/kg [2, 6] of the same compound?
A: 1%

Q: And the change in vivo at 0.875 mg/kg [2, 7]?
A: 88%

Q: What about the IC50 [3] of the same compound?
A: 62 µM
